Patent US12171755B2, “PAPD5 inhibitors and methods of use thereof” (Children's Medical Center Corporation, priority 2017, dated 2024)

Biological target: T1, PAPD5 (Homo sapiens, UniProt Q8NDF8)
T1 construct: made in house
Assay: High-throughput luminescence (KinaseGlo) RNA polyadenylation assay, ATP utilization by recombinant PAPD5
Assay type: biochemical
Conditions: Table 4 (entries of Table 5), ratio of luminescence with inhibitor to DMSO; for Fold-change determined at compound concentration 33 μM: 33 μM compound; for Fold-change determined at compound concentration 100 μM: 100 μM compound, higher = higher inhibition
Experimental: Optimal conditions for an in vitro RNA polyadenylation assay using recombinant PAPD5, ATP and an oligonucleotide substrate were identified. The HTS assay involved ATP utilization by PAPD5, which reads out as a decreased luminescence signal produced by luciferase (KinaseGlo, Promega, Madison, WI).
100 nl of compound dissolved in DMSO was transferred to each well of the assay plate via pin transfer. For negative control wells, DMSO alone was added. Plates were gently vortexed for 5 seconds, then incubated for 2 hours at room temperature.
After 2 hours, 5 ul of luciferase (Promega KinaseGlo, Madison, WI) was added using a MultiDrop Combi (Thermo Fisher Scientific, Waltham, MA). The mixture was gently vortexed for 5 seconds and incubated for 10 minutes at room temperature. Plates were spun for 1 minute prior to luminescence measurements. Luminescent measurements were quantitated using a PerkinElmer EnVision™ plate reader.
˜100,000 compounds from various libraries at the ICCB-Longwood were screened in this manner in duplicate.
The fold change was the ratio of luminescence from a sample with inhibitor compared to that with DMSO. Thus, a higher number indicates higher inhibition.

T1 sequence (Q8NDF8 68-698 isoform Q8NDF8-5): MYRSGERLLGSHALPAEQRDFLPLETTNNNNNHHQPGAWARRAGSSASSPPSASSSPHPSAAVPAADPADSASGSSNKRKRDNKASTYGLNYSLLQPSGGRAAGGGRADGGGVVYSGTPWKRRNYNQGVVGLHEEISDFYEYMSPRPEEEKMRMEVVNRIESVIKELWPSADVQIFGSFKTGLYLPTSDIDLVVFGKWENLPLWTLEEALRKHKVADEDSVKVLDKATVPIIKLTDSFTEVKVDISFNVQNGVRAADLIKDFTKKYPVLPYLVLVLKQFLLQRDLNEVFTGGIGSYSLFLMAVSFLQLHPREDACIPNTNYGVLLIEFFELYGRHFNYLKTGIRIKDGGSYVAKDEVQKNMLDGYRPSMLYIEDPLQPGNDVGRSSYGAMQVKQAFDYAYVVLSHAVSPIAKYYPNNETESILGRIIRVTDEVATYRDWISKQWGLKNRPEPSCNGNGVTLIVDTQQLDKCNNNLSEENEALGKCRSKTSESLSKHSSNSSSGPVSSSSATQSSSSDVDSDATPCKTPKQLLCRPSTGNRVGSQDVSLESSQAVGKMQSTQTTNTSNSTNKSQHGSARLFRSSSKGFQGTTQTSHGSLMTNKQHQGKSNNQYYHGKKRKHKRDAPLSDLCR

Fold-change determined at compound concentration 33 μM | Fold-change determined at compound concentration 100 μM | Structure (SMILES)
1.142 | 1.419 | CCn1c(SCC(=O)O)nc2c(=O)n(C)c(=O)n(C)c21 [Entry 77, 2-(9-ethyl-1,3-dimethyl-2,6-dioxopurin-8-yl)sulfanylacetic acid]
1.05 | 1.26 | Cn1c(=O)c2nc(SCCC(=O)O)n(Cc3ccc(F)cc3)c2n(C)c1=O [Entry 78, 3-{[9-(4-fluorobenzyl)-1,3-dimethyl-2,6-dioxo-2,3,6,9-tetrahydro-1H-purin-8-yl]sulfanyl}propanoic acid]
1.164 | 1.447 | Cn1c(=O)c2nc(SCC(=O)O)n(CCc3ccccc3)c2n(C)c1=O [Entry 79, 2-[1,3-dimethyl-2,6-dioxo-9-(2-phenylethyl)purin-8-yl]sulfanylacetic acid]
1.164 | 1.55 | Cn1c(=O)c2nc(SCC(=O)O)n(Cc3ccccc3)c2n(C)c1=O [Entry 80, 2-(9-benzyl-1,3-dimethyl-2,6-dioxopurin-8-yl)sulfanylacetic acid]
1.107 | 1.288 | Cn1c(=O)c2c(nc(Sc3nnc(NC(=O)c4ccccc4Br)s3)n2C)n(C)c1=O [Entry 81]
1.122 | 1.306 | Cn1c(=O)c2nc(SCCC(=O)O)n(Cc3ccccc3)c2n(C)c1=O [Entry 82, 3-(9-benzyl-1,3-dimethyl-2,6-dioxopurin-8-yl)sulfanylpropanoic acid]
1.041 | 1.203 | O=C(O)c1ccccc1C(=O)Nc1ccc(Br)c2cccnc12 [Entry 83, 2-[(5-bromoquinolin-8-yl)carbamoyl]benzoic acid]
1.12 | 1.568 | Cc1ccc(-c2onc3ccc(-c4cc(C(=O)O)c5ccccc5n4)cc23)cc1 [Entry 84, 2-[3-(4-methylphenyl)-2,1-benzoxazol-5-yl]quinoline-4-carboxylic acid]
1.061 | 1.252 | Cc1cc(C)c2nc(C)cc(C(=O)O)c2c1 [Entry 85, 2,6,8-trimethylquinoline-4-carboxylic acid]
1.085 | 1.233 | Cc1ccc2cccc(NC(=O)c3cccnc3)c2n1 [Entry 86, N-(2-methylquinolin-8-yl)nicotinamide]
1.097 | 1.253 | COc1ccc(NC(=O)c2ccc3c(SCC(=O)O)c4c(nc3c2)CCC4)c(OC)c1 [Entry 87, 2-[[6-[(2,4-dimethoxyphenyl)carbamoyl]-2,3-dihydro-1H-cyclopenta[b]quinolin-9-yl]sulfanyl]acetic acid]
1.082 | 1.276 | COc1ccc(NC(=O)c2ccc3c(SCC(=O)O)c4c(nc3c2)CCCC4)c(OC)c1 [Entry 88, [(6-{[(2,4-dimethoxyphenyl)amino]carbonyl}-1,2,3,4-tetrahydroacridin-9-yl)thio]acetic acid]
1.098 | 1.211 | COCCNC(=O)CSc1c2c(nc3cc(Cl)ccc13)CCCC2 [Entry 89, 2-[(6-chloro-1,2,3,4-tetrahydroacridin-9-yl)sulfanyl]-N-(2-methoxyethyl)acetamide]
1.105 | 1.253 | CCCNC(=O)CSc1c2c(nc3ccc(Cl)cc13)CCCC2 [Entry 90, 2-[(7-chloro-1,2,3,4-tetrahydroacridin-9-yl)sulfanyl]-N-propylacetamide]
1.197 | 1.537 | COc1c2[nH]c3occc3c(OC)c-2ccc1=O [Entry 91, 4,8-dimethoxy-9H-furo[2,3-b]quinolin-7-one]
1.294 | 1.926 | Cc1ccc2cc(-c3noc(CCC(=O)Nc4nccs4)n3)c(O)nc2c1 [Entry 94, 3-[3-(2-hydroxy-7-methylquinolin-3-yl)-1,2,4-oxadiazol-5-yl]-N-1,3-thiazol-2-ylpropanamide]
1.156 | 1.228 | Cc1ccc(NC(=O)c2ccc3c(O)c(S(=O)(=O)c4ccc(Cl)cc4)c(=O)[nH]c3c2)cc1 [Entry 95, 3-(4-chlorophenyl)sulfonyl-4-hydroxy-N-(4-methylphenyl)-2-oxo-1H-quinoline-7-carboxamide]
1.184 | 1.23 | Cc1ccc(C)c(NC(=O)c2ccc3c(O)c(S(=O)(=O)c4ccc(Cl)cc4)c(O)nc3c2)c1 [Entry 96, (Z)-3-((4-chlorophenyl)sulfonyl)-N-(2,5-dimethylphenyl)-2,4-dihydroxyquinoline-7-carbimidic acid]
1.171 | 1.403 | O=C(CSc1nc(=O)c2ccccc2[nH]1)NCc1nc2ccccc2[nH]1 [Entry 97, N-(1H-benzimidazol-2-ylmethyl)-2-[(4-oxo-1H-quinazolin-2-yl)sulfanyl]acetamide]
1.97 | 2.765 | O=C(O)C1Nc2ccc(Cl)cc2C2C=CCC12 (centres unmarked) [Entry 98, 8-Chloro-3a,4,5,9b-tetrahydro-3H-cyclopenta[c]quinoline-4-carboxylic acid]
1.233 | 1.91 | COc1ccc(Br)cc1[C@@H]1Nc2ccc(C(=O)O)cc2[C@@H]2C=CC[C@@H]21 [Entry 99, (3aS,4R,9bR)-4-(5-bromo-2-methoxyphenyl)-3a,4,5,9b-tetrahydro-3H-cyclopenta[c]quinoline-8-carboxylic acid]
1.315 | 2.297 | COc1ccc(NS(=O)(=O)c2ccc3c(c2)[C@H]2C=CC[C@H]2[C@@H](c2ccc(C(=O)O)cc2)N3)cc1 [Entry 100, 4-[(3aR,4S,9bS)-8-[(4-methoxyphenyl)sulfamoyl]-3a,4,5,9b-tetrahydro-3H-cyclopenta[c]quinolin-4-yl]benzoic acid]
1.265 | 2.042 | CCOc1cccc2c1N[C@@H](c1ccc(C(=O)O)cc1)[C@H]1CC=C[C@@H]21 [Entry 101, 4-[(3aS,4R,9bR)-6-ethoxy-3a,4,5,9b-tetrahydro-3H-cyclopenta[c]quinolin-4-yl]benzoic acid]
1.066 | 1.268 | Cc1cc(C)c2c(=O)cc(CSc3nnc(-c4ccccc4)n3C)[nH]c2c1 [Entry 102, 5,7-dimethyl-2-[(4-methyl-5-phenyl-1,2,4-triazol-3-yl)sulfanylmethyl]-1H-quinolin-4-one]

Structure (SMILES) | Fold-change determined at compound concentration 33 μM | Fold-change determined at compound concentration 100 μM
COc1c2ccoc2nc2c(OC)cccc12 [Entry 92, 4,8-dimethoxyfuro[2,3-b]quinoline] | 1.175 | 1.478
